The source of these data is ChEMBL document CHEMBL5236659, “Design, synthesis and antitumor activity of novel thiophene- triazine derivatives bearing arylurea unit as potent PI3K/mTOR inhibitorss” (Bioorg Med Chem, 2023).

The source made the active and inactive calls. The rule behind the calls is not given here.

Data set [1] deals with T1, Phosphatidylinositol 4,5-bisphosphate 3-kinase catalytic subunit alpha isoform (Homo sapiens, UniProt P42336). Nature of the data set: Inhibition of PI3Kalpha (unknown origin) at 1 uM by kinase-glo luminescent assay relative to control. For orientation: Kinase-Glo reads ATP consumption through a luciferase reaction.
T1 sequence (P42336 whole entry, canonical isoform): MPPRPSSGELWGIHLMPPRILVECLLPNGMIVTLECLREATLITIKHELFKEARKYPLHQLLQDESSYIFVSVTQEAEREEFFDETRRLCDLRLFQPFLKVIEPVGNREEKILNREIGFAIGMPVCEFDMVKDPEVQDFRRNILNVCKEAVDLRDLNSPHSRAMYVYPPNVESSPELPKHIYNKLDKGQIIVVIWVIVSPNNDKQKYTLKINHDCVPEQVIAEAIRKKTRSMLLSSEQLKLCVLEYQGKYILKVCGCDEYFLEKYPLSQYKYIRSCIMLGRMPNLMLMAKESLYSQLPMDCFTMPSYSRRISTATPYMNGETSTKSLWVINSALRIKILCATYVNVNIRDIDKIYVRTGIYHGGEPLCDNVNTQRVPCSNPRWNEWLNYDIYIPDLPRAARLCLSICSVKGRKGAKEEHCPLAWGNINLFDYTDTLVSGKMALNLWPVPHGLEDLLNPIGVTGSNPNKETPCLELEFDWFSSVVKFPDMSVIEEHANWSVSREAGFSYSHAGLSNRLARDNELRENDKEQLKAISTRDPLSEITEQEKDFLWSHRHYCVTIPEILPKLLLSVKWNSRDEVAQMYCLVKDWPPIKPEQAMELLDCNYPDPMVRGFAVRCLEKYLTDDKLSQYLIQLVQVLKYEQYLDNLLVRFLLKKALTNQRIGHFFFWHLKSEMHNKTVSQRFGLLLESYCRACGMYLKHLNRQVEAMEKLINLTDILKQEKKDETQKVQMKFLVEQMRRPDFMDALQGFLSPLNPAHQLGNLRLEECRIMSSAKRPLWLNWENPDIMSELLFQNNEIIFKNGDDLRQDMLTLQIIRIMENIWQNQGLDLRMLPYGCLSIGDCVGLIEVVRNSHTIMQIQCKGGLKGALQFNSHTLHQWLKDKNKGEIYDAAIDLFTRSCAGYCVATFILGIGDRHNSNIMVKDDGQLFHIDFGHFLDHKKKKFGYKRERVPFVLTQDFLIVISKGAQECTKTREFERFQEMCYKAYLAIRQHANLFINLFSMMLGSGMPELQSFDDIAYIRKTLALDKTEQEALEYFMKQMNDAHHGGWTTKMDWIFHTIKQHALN
In data set [2] the target is T2, Serine/threonine-protein kinase mTOR (Homo sapiens, UniProt P42345). Nature of the data set: Inhibition of mTOR (unknown origin) at 1 uM by kinase-glo luminescent assay relative to control.
The target of data set [3] is T1, Phosphatidylinositol 4,5-bisphosphate 3-kinase catalytic subunit alpha isoform. Nature of the data set: Inhibition of PI3Kalpha (unknown origin) by kinase-glo luminescent assay.
Data set [4] concerns the target T2, Serine/threonine-protein kinase mTOR. Nature of the data set: Inhibition of mTOR (unknown origin) by kinase-glo luminescent assay.
The next data set is filed under the species Homo sapiens. Nature of the data set: Selectivity index, ratio of IC50 for inhibition of PI3Kalpha (unknown origin) to IC50 for inhibition of mTOR (unknown origin) by kinase glo luminescent assay.
A further data set deals with MCF7. Nature of the data set: Antiproliferative activity against human MCF7 cells assessed as inhibition of cell growth incubated for 72 hrs by MTT assay. In kind it is functional, cell-based. The note with it: MCF7, 72 h.
A short description of data set [5]: Antiproliferative activity against human OVCAR-2 cells assessed as inhibition of cell growth incubated for 72 hrs by MTT assay. In kind it is functional, cell-based. Particulars: OVCAR-2, 72 h. In general terms: Formazan colour is commonly taken as a measure of viable cells.
Data set [6] in a line: Antiproliferative activity against human U-87 MG cells assessed as inhibition of cell growth incubated for 72 hrs by MTT assay. Type of data set: functional, cell-based, U-87MG ATCC.
A further data set deals with A549. Nature of the data set: Antiproliferative activity against human A549 cells assessed as inhibition of cell growth incubated for 72 hrs by MTT assay. In kind it is functional, cell-based. Particulars: A549, 72 h.
The test system of a further data set is NCI-H460. Nature of the data set: Antiproliferative activity against human NCI-H460 cells assessed as inhibition of cell growth incubated for 72 hrs by MTT assay. In kind it is functional, cell-based. The note with it: NCI-H460, 72 h.
The next data set deals with NCI-H2228. Nature of the data set: Antiproliferative activity against human NCI-H2228 cells assessed as inhibition of cell growth incubated for 72 hrs by MTT assay. Particulars: Homo sapiens, NCI-H2228, 72 h; read-out: IC50. In kind it is functional, cell-based.
Another data set concerns NCI-H1975. Nature of the data set: Antiproliferative activity against human NCI-H1975 cells overexpressing EGFR L858R/T790M mutant assessed as inhibition of cell growth incubated for 72 hrs by MTT assay. Type of data set: functional, cell-based. The note with it: NCI-H1975, 72 h.
Data set [7] in a line: Selectivity ratio of IC50 for antiproliferative activity against human A549 cells to IC50 for antiproliferative activity against human NCI-H1975 cells overexpressing EGFR L858R/T790M mutant. Type of data set: functional.
In data set [8] the test system is HeLa. Nature of the data set: Antiproliferative activity against human HeLa cells assessed as inhibition of cell growth incubated for 72 hrs by MTT assay. In kind it is functional, cell-based.
Data set [9] has as its system HeLa. Nature of the data set: Antiproliferative activity against paclitaxel-resistant human HeLa cells assessed as inhibition of cell growth incubated for 72 hrs by MTT assay. In kind it is functional, cell-based.
The nature of data set [10]: Selectivity ratio of IC50 for antiproliferative activity against human HeLa cells to IC50 for antiproliferative activity against paclitaxel-resistant human HeLa cells. In kind it is functional.
Data set [11] concerns the target Vascular endothelial growth factor receptor 2 (Homo sapiens) (UniProt P35968). Nature of the data set: Inhibition of KDR (unknown origin) at 1 uM by kinase-glo luminescent assay relative to control.
Data set [12] deals with RAC-alpha serine/threonine-protein kinase (Homo sapiens) (UniProt P31749). Nature of the data set: Inhibition of AKT1 (unknown origin) at 1 uM by kinase-glo luminescent assay relative to control.
Sequence of RAC-alpha serine/threonine-protein kinase (Homo sapiens) (P31749 whole entry): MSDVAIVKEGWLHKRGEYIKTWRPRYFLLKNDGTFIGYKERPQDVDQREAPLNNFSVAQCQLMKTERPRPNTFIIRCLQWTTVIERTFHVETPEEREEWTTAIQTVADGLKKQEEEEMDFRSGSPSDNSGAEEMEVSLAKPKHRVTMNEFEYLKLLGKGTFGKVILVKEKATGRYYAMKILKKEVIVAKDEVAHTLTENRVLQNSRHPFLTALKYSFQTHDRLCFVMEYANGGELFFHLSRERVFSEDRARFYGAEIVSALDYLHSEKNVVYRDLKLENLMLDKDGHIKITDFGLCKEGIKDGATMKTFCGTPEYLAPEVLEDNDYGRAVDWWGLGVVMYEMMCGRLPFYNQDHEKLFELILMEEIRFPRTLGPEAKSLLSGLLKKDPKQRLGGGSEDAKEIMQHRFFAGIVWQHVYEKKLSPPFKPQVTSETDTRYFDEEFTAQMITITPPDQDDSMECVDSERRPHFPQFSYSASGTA
Data set [13] deals with Epidermal growth factor receptor (Homo sapiens) (UniProt P00533). Nature of the data set: Inhibition of EGFR (unknown origin) at 1 uM by kinase-glo luminescent assay relative to control.
Sequence of Epidermal growth factor receptor (Homo sapiens) (P00533 whole entry): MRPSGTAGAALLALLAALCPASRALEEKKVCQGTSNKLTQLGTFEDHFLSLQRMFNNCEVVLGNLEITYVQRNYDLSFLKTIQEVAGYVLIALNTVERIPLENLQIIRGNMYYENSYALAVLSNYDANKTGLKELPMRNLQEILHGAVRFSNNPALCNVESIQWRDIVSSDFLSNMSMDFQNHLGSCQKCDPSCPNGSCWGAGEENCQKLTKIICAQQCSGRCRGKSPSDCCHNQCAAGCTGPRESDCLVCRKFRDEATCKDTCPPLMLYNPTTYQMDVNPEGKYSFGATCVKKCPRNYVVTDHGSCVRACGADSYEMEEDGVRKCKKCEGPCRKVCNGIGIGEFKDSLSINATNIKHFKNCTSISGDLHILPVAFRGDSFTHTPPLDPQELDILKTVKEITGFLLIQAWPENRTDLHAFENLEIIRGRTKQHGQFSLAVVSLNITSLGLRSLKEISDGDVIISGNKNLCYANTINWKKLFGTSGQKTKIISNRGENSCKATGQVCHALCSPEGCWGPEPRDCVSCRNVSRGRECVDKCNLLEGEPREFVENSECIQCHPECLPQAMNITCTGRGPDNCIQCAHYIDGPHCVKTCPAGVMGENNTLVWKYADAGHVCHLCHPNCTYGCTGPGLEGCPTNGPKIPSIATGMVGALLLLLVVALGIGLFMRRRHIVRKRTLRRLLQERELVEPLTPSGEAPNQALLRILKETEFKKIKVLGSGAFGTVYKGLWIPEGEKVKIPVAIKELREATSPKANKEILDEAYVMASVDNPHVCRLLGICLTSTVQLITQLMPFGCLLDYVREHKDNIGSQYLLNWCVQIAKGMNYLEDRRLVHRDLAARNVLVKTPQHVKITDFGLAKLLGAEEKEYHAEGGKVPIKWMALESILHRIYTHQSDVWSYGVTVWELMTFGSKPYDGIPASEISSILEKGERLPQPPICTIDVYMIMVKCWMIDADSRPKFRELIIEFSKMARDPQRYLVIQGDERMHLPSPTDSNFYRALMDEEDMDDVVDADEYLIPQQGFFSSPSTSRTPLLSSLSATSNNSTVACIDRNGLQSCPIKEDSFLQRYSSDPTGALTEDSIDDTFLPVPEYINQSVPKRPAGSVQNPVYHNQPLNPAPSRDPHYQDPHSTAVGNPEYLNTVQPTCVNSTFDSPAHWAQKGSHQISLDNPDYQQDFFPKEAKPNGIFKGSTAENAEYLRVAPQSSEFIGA
A short description of data set [14]: Selectivity ratio of IC50 for antiproliferative activity against human MCF7 cells to IC50 for antiproliferative activity against human U-87 MG cells. Type of data set: functional.
Data set [15] is described as follows: Cytotoxicity against human L02 cells assessed as inhibition of cell growth incubated for 72 hrs by MTT assay. In kind it is toxicity, cell-based.
Data set [16] is described as follows: Hemolytic activity in 2% sheep RBC assessed as hemolysis at 16 to 256 ug/ml incubated for 3 hrs. In kind it is toxicity, cell-based, Ovis aries. The note with it: erythrocyte, dose 16-256 µg/ml.
Data set [17] has as its target T1, Phosphatidylinositol 4,5-bisphosphate 3-kinase catalytic subunit alpha isoform. Nature of the data set: Inhibition of PI3Kalpha in human MCF7 cells assessed as decrease in PI3Kalpha gene expression incubated for 24 hrs by fluorescence quantitative PCR assay. Type of data set: cell-based. Particulars: dose 0.8-1.6 µM.

Sequence of Vascular endothelial growth factor receptor 2 (Homo sapiens) (P35968 whole entry): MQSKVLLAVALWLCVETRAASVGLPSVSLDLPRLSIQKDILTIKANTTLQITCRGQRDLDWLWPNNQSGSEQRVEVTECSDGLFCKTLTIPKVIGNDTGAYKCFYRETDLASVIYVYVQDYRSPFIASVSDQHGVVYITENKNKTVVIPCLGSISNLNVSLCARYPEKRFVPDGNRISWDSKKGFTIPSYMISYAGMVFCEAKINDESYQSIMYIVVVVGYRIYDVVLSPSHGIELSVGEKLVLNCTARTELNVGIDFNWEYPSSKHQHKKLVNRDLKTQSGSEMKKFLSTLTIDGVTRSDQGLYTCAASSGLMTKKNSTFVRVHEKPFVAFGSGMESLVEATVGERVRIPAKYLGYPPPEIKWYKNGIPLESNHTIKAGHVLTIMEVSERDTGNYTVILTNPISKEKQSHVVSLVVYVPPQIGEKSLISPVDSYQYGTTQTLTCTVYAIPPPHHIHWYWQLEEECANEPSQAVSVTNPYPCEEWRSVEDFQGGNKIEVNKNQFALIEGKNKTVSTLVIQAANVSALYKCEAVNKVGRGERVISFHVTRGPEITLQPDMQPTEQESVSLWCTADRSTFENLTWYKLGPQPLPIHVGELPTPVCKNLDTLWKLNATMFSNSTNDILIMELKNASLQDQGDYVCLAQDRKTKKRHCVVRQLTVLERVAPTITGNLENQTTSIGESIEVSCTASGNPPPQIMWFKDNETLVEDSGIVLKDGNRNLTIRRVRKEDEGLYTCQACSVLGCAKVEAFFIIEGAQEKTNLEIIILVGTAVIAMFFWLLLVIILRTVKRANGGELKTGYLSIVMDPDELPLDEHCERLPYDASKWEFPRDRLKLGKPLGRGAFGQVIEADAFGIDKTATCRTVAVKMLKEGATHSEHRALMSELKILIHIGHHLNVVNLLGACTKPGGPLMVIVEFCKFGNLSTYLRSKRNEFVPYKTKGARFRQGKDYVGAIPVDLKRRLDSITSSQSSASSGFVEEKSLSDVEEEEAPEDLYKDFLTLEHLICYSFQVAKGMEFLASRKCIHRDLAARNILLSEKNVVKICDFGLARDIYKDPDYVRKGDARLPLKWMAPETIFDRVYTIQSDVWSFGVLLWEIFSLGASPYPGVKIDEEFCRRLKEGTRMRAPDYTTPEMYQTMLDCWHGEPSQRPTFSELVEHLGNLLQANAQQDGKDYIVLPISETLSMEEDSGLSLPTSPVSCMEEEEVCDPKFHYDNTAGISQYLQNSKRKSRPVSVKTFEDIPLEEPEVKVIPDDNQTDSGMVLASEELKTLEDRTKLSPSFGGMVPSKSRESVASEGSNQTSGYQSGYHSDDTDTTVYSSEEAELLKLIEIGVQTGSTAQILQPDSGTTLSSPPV

What is called inhibition is the share of the control response that was lost under treatment. Usually IC50 stands for the concentration that inhibits the measured activity by half. For the molecule `CS(=O)(=O)N1CCN(Cc2ccc(-c3nc(-c4ccc(NC(=O)Nc5cnccn5)cc4)nc(N4CCOCC4)n3)s2)CC1`, the inhibition in data set [1] stood at 20.6%; in data set [2], 76.6%. Moreover, the IC50 in data set [3] was 2.36 µM; in data set [4], 0.16 µM; with MCF7 it was 5.87 µM; in data set [5], 15.8 µM; in data set [6] it was more than 100 µM; in the data set with A549, 7.08 µM. Moreover, the IC50 in the data set with NCI-H460 turned out to be 25.4 µM; with NCI-H2228, 10.3 µM; in the data set with NCI-H1975, 8.22 µM; in the data set with HeLa [8] it was 18.2 µM; with HeLa [9], 0.021 µM. In addition, the figures for the Ratio IC50 (in the data set listed under Homo sapiens; in [7]; in [10]) were 14.7, 0.86 and 912.5, respectively.
On to `CS(=O)(=O)N1CCN(Cc2ccc(-c3nc(-c4ccc(NC(=O)Nc5ccn[nH]5)cc4)nc(N4CCOCC4)n3)s2)CC1`, for which the inhibition is 87.2% in data set [1]; 91.1% in data set [2]; 1.77% in data set [11]; 4.03% in [12]; 10.5% in [13]. Besides, the IC50 in the data set on MCF7 is 1.8 µM; in data set [5], 2.12 µM; in data set [6], 8.96 µM; with A549 it was 3.62 µM; in the data set on NCI-H460, 11.5 µM; with NCI-H1975, 5.27 µM. Besides, the results for the IC50 in the data set on HeLa [8] and with HeLa [9] were 4.3 µM and 0.23 µM, respectively. In addition, the “Ratio IC50” value came out at 0.2 in data set [14], 0.69 in data set [7] and 18.7 in [10]. Further, in data set [15], the IC50 at 72 h was more than 100 µM.
`CS(=O)(=O)N1CCN(Cc2ccc(-c3nc(-c4ccc(NC(=O)Nc5ccncc5)cc4)nc(N4CCOCC4)n3)s2)CC1`: the inhibition is 88.2% in data set [1]; 1.74% in [11]; 18.2% in data set [12]; 6.24% in data set [13]; “Dose-Dependent Effect” in [17]. In addition, the IC50 in data set [3] amounted to 0.177 µM; in the data set on MCF7, 0.3 µM; in [5] it was 0.25 µM; in data set [6], 1.25 µM; in the data set with A549 it was 0.47 µM; in the data set on NCI-H460 it was 2.31 µM. For the same molecule, the IC50 is 0.22 µM with NCI-H2228, 0.008 µM with NCI-H1975, 1.04 µM in the data set on HeLa [8] and 0.37 µM in the data set on HeLa [9]. For the same molecule, the IC50 at 72 h in data set [15] was more than 100 µM. Further, in data set [16], the Activity result is given as “Non-Toxic”.
As to `Cn1ccc(NC(=O)Nc2ccc(-c3nc(-c4ccc(CN5CCN(S(C)(=O)=O)CC5)s4)nc(N4CCOCC4)n3)cc2)n1`, the inhibition in data set [1] turned out to be 80.1%; in data set [12], 1.02%. Also, the IC50 is 0.299 µM in data set [3]; 1.05 µM in the data set with MCF7; 1.06 µM in data set [5]; 0.24 µM in [6]; 0.11 µM in the data set on A549; 3.21 µM in the data set with NCI-H460. Further, the IC50 in the data set on NCI-H1975 stood at 0.16 µM; with HeLa [8], 2.36 µM; in the data set on HeLa [9], 2.07 µM. Moreover, the inhibition result in [11] and in [13] was “inactive” in each case. For the same molecule, in [15], the IC50 at 72 h was more than 100 µM.
